{
  "source": "patent US20070191459A1",
  "about": "“Use of Benzo-Heteroaryl Sulfamide Derivatives for Lowering Lipids and Lowering Blood Glucose Levels” (priority 2006, published 2007)",
  "test_system": "db/db mice",
  "test": "Diabetic db/db Mouse In Vivo Assay",
  "settings": "female db/db mice",
  "text": "Db/db mice are known in the art to be susceptible to Type II diabetes (Sharma K, McCue P, Dunn S R. Am J Physiol Renal Physiol. 2003 June; 284(6):F1138-44). The Db/db mice are also known in the art to be a useful model for dylipidemia.\nFemale db/db mice (C57BL/6J-Lep^db/db, Jackson Laboratories, Bar Harbor, Me., USA) were received at 8 weeks of age and single-housed and fed with regular chow diet. Blood was collected by tail puncture and glucose was monitored with a glucometer (OneTouch Basic, Lifescan, Newtown, Pa.).\nMice at 10 weeks of age were randomized into treatment groups based on glucose values (first criterion, average of 250 mg/dl) and body weight (second criterion, average of 37 gram). The mice were orally gavaged once daily (0.2 ml at 1500-1700 hour) with vehicle control (0.5% methylcellulose, pH7.4) and vehicle containing test compound (300 mg/kg). On day 11, the mice were fasted for 4 hr during light cycle (food was removed 0600-1000 hour) and blood glucose levels were measured through tail puncture with a glucometer at 1000 hour. The mice were then anaesthetized with sodium pentobarbital (1 ml/kg, i.p, Sleepaway, Fort Dodge, Iowa) and blood was drawn via cardiac puncture and collected into heparinized tubes.\nWhite adipose tissue (WAT) (retroperitoneal fat) and skeletal muscle (gastrocnemius and soleus muscle) were dissected and weighed. Plasma samples were obtained by centrifuge at 2,000 g for 15 minutes at 4° C. and subjected to measurement of insulin, HDL cholesterol and triglyceride.\nData shown below are expressed as the mean and standard error calculated using 9-10 mice per treatment group. The 2 tailed Student's t-Tests were used for statistic analysis. All animal studies complied with the guideline of the Institutional Animal Care and Use Committee.",
  "key": {"[1]": {"settings": "300 mg/kg oral gavage once daily, day 11, plasma, mean ± standard error"}, "[2]": {"settings": "300 mg/kg oral once daily, in words"}},
  "data": [
    {"compound": "NS(=O)(=O)NCc1csc2ccccc12", "note": "[Compound #1, N-(benzo[b]thien-3-ylmethyl)-sulfamide]", "values": [
      {"measurement": "Blood Glucose", "setting": "300 mg/kg oral gavage once daily, day 11, 4 hr fasted, mean ± standard error, 9-10 mice", "value": "350 ± 19", "unit": "mg/dL"},
      {"measurement": "HDL Cholesterol", "setting": "[1]", "value": "52.6 ± 1.8", "unit": "mg/dL"},
      {"measurement": "Triglycerides", "setting": "[1]", "value": "149.2 ± 15.8", "unit": "mg/dL"},
      {"measurement": "Insulin levels", "setting": "300 mg/kg oral gavage once daily, day 11, plasma, vehicle 11.9±2.2", "value": "14.6±3.0"},
      {"measurement": "Skeletal Muscle Weight", "setting": "300 mg/kg oral gavage once daily, day 11, gastrocnemius and soleus muscle, mean ± standard error", "value": "0.155 ± 0.004", "unit": "g"},
      {"measurement": "Retroperitoneal Fat Weight", "setting": "300 mg/kg oral gavage once daily, day 11, mean ± standard error", "value": "1.29 ± 0.09", "unit": "g"},
      {"measurement": "blood glucose levels as compared to vehicle treated mice", "setting": "[2]", "value": "significantly lower"},
      {"measurement": "blood triglyceride levels as compared to vehicle treated mice", "setting": "[2]", "value": "decreased"},
      {"measurement": "plasma HDL cholesterol levels as compared to vehicle treated mice", "setting": "[2]", "value": "significantly increased"},
      {"measurement": "skeletal muscle mass versus vehicle", "setting": "[2]", "value": "increased skeletal muscle mass"},
      {"measurement": "fat to lean mass ratio", "setting": "300 mg/kg oral once daily, versus vehicle, in words", "value": "significant decrease"}
    ]}
  ]
}
